From PubChem BioAssay (NCI)
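Cells were grown in 96-well plates and exposed to each compound for 48 hours at five concentrations; endpoints were interpolated linearly between bracketing concentrations, or set to the highest concentration if not reached. At the GI50, growth is halved. TGI: total growth inhibition.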

How the values were obtained:
Assay in all cases: NCI anticancer screen, dose series, 48 h
SNB-19 CNS = test system: SNB-19 CNS
MOLT-4 leukemia = test system: MOLT-4 leukemia
786-0 renal = test system: 786-0 renal
T-47D breast = test system: T-47D breast
TK-10 renal = test system: TK-10 renal
UO-31 renal = test system: UO-31 renal
HT29 colon = test system: HT29 colon
OVCAR-3 ovarian = test system: OVCAR-3 ovarian
SF-539 CNS = test system: SF-539 CNS
MDA-MB-435 = test system: MDA-MB-435
ACHN renal = test system: ACHN renal
MDA-MB-468 breast = test system: MDA-MB-468 breast
EKVX NSCLC = test system: EKVX NSCLC
HOP-92 NSCLC = test system: HOP-92 NSCLC
LOX IMVI melanoma = test system: LOX IMVI melanoma
A549 NSCLC = test system: A549 NSCLC
MDA-MB-231 breast = test system: MDA-MB-231 breast
SK-OV-3 ovarian = test system: SK-OV-3 ovarian
NCI-H522 lung = test system: NCI-H522 lung
HOP-62 NSCLC = test system: HOP-62 NSCLC
OVCAR-4 ovarian = test system: OVCAR-4 ovarian
UACC-257 melanoma = test system: UACC-257 melanoma
NCI-H460 lung = test system: NCI-H460 lung
MCF7 breast = test system: MCF7 breast
BT-549 breast = test system: BT-549 breast
SR leukemia = test system: SR leukemia
PC-3 prostate = test system: PC-3 prostate
HL-60(TB) leukemia = test system: HL-60(TB) leukemia
MALME-3M melanoma = test system: MALME-3M melanoma
HCT-15 colon = test system: HCT-15 colon
NCI-H23 lung = test system: NCI-H23 lung
DU-145 prostate = test system: DU-145 prostate
IGROV1 ovarian = test system: IGROV1 ovarian
SF-268 CNS = test system: SF-268 CNS
RXF 393 renal = test system: RXF 393 renal
HCC-2998 colon = test system: HCC-2998 colon
RPMI-8226 leukemia = test system: RPMI-8226 leukemia
SF-295 CNS = test system: SF-295 CNS
HS 578T breast = test system: HS 578T breast
COLO 205 colon = test system: COLO 205 colon
SNB-75 CNS = test system: SNB-75 CNS
CAKI-1 renal = test system: CAKI-1 renal
SK-MEL-2 melanoma = test system: SK-MEL-2 melanoma
NCI/ADR-RES ovarian = test system: NCI/ADR-RES ovarian
SN12C renal = test system: SN12C renal
SK-MEL-28 melanoma = test system: SK-MEL-28 melanoma
SW-620 colon = test system: SW-620 colon
SK-MEL-5 melanoma = test system: SK-MEL-5 melanoma
A498 renal = test system: A498 renal
OVCAR-5 ovarian = test system: OVCAR-5 ovarian
K-562 leukemia = test system: K-562 leukemia
CCRF-CEM leukemia = test system: CCRF-CEM leukemia
KM12 colon = test system: KM12 colon
U251 CNS = test system: U251 CNS
NCI-H226 lung = test system: NCI-H226 lung
UACC-62 melanoma = test system: UACC-62 melanoma
M14 melanoma = test system: M14 melanoma
OVCAR-8 ovarian = test system: OVCAR-8 ovarian

OCc1[nH]nc2cc(Nc3ncc4ccc(Br)c(OC5CCC(O)CC5)c4n3)ccc12 (centres undefined)
GI50 (SNB-19 CNS): 25.8 nM
TGI (SNB-19 CNS): > 44800 nM
GI50 (MOLT-4 leukemia): 37.2 nM
TGI (MOLT-4 leukemia): > 100000 nM
GI50 (786-0 renal): 37.1 nM
TGI (786-0 renal): 2700 nM
GI50 (T-47D breast): 41.1 nM
TGI (T-47D breast): 904 nM
GI50 (TK-10 renal): 78.7 nM
TGI (TK-10 renal): 729 nM
GI50 (UO-31 renal): 28.8 nM
TGI (UO-31 renal): 278 nM
GI50 (HT29 colon): 103 nM
TGI (HT29 colon): 487 nM
GI50 (OVCAR-3 ovarian): 25.6 nM
TGI (OVCAR-3 ovarian): 171 nM
GI50 (SF-539 CNS): 22.5 nM
TGI (SF-539 CNS): 69.6 nM
GI50 (MDA-MB-435): 39.9 nM
TGI (MDA-MB-435): 2470 nM
GI50 (ACHN renal): 23.1 nM
GI50 (MDA-MB-468 breast): 30.1 nM
TGI (MDA-MB-468 breast): 100 nM
GI50 (EKVX NSCLC): 67.3 nM
TGI (EKVX NSCLC): 414 nM
GI50 (HOP-92 NSCLC): 92.2 nM
TGI (HOP-92 NSCLC): > 100000 nM
GI50 (LOX IMVI melanoma): 16.4 nM
TGI (LOX IMVI melanoma): 59.2 nM
GI50 (A549 NSCLC): 157 nM
TGI (A549 NSCLC): > 100000 nM
GI50 (MDA-MB-231 breast): 30.1 nM
TGI (MDA-MB-231 breast): 505 nM
GI50 (SK-OV-3 ovarian): 376 nM
TGI (SK-OV-3 ovarian): > 100000 nM
GI50 (NCI-H522 lung): 202 nM
TGI (NCI-H522 lung): 744 nM
GI50 (HOP-62 NSCLC): 34 nM
TGI (HOP-62 NSCLC): 22800 nM
GI50 (OVCAR-4 ovarian): 44.2 nM
TGI (OVCAR-4 ovarian): 1760 nM
GI50 (UACC-257 melanoma): 234 nM
TGI (UACC-257 melanoma): 9780 nM
GI50 (NCI-H460 lung): 47.4 nM
TGI (NCI-H460 lung): 4380 nM
GI50 (MCF7 breast): 19.9 nM
TGI (MCF7 breast): 1100 nM
GI50 (BT-549 breast): 27.4 nM
TGI (BT-549 breast): 133 nM
TGI (SR leukemia): > 100000 nM
GI50 (PC-3 prostate): 50.2 nM
TGI (PC-3 prostate): > 100000 nM
GI50 (HL-60(TB) leukemia): 14.7 nM
TGI (HL-60(TB) leukemia): 105 nM
GI50 (MALME-3M melanoma): 88.2 nM
TGI (MALME-3M melanoma): 517 nM
GI50 (HCT-15 colon): 36 nM
TGI (HCT-15 colon): 1540 nM
GI50 (NCI-H23 lung): 40.2 nM
TGI (NCI-H23 lung): 257 nM
GI50 (DU-145 prostate): 35.9 nM
TGI (DU-145 prostate): > 100000 nM
GI50 (IGROV1 ovarian): 32.6 nM
TGI (IGROV1 ovarian): 1190 nM
GI50 (SF-268 CNS): 33.5 nM
TGI (SF-268 CNS): 1320 nM
GI50 (RXF 393 renal): 19.3 nM
TGI (RXF 393 renal): 46.7 nM
GI50 (HCC-2998 colon): 51.2 nM
TGI (HCC-2998 colon): 519 nM
GI50 (RPMI-8226 leukemia): 276 nM
TGI (RPMI-8226 leukemia): > 100000 nM
GI50 (SF-295 CNS): 40.6 nM
TGI (SF-295 CNS): 508 nM
GI50 (HS 578T breast): 44.4 nM
TGI (HS 578T breast): 1850 nM
GI50 (COLO 205 colon): 31.7 nM
TGI (COLO 205 colon): 145 nM
GI50 (SNB-75 CNS): 35.9 nM
TGI (SNB-75 CNS): 296 nM
GI50 (CAKI-1 renal): 21.2 nM
TGI (CAKI-1 renal): 2400 nM
GI50 (SK-MEL-2 melanoma): 47.6 nM
TGI (SK-MEL-2 melanoma): 213 nM
GI50 (NCI/ADR-RES ovarian): 226 nM
TGI (NCI/ADR-RES ovarian): 12200 nM
GI50 (SN12C renal): 35 nM
TGI (SN12C renal): 20000 nM
GI50 (SK-MEL-28 melanoma): 49.9 nM
TGI (SK-MEL-28 melanoma): 963 nM
GI50 (SW-620 colon): 25.7 nM
TGI (SW-620 colon): 1960 nM
GI50 (SK-MEL-5 melanoma): 27 nM
TGI (SK-MEL-5 melanoma): 428 nM
GI50 (A498 renal): 49.5 nM
TGI (A498 renal): 231 nM
GI50 (OVCAR-5 ovarian): 50 nM
TGI (OVCAR-5 ovarian): 316 nM
GI50 (K-562 leukemia): 78.8 nM
TGI (K-562 leukemia): > 100000 nM
GI50 (CCRF-CEM leukemia): 31.4 nM
TGI (CCRF-CEM leukemia): > 100000 nM
GI50 (KM12 colon): 34.7 nM
TGI (KM12 colon): 358 nM
GI50 (U251 CNS): 39.1 nM
TGI (U251 CNS): > 100000 nM
GI50 (NCI-H226 lung): 16.4 nM
TGI (NCI-H226 lung): 77 nM
GI50 (UACC-62 melanoma): 35.9 nM
TGI (UACC-62 melanoma): 379 nM
GI50 (M14 melanoma): 45 nM
TGI (M14 melanoma): 1740 nM
GI50 (OVCAR-8 ovarian): 40.5 nM
TGI (OVCAR-8 ovarian): > 71900 nM
